The GI50 is the concentration giving 50% growth inhibition. Read a low GI50 as more potent growth inhibition.

What all share (experiment): CTG (CellTiter-Glo) screening assay
Type in all cases: cell-based

The test system of assay [1] is Colo-205. Conditions: Homo sapiens. An excerpt:
(§1) Identification of tumor types that are the most sensitive to the KSP inhibitors of the present invention can be accomplished using an unbiased approach that uses several cell-based assays. The assays chosen were as follows: • CellTiter-Glo®. This is an assay designed to measure ATP concentration in a cell culture, and can be correlated to cell number. Briefly CellTiter-Glo® (Promega Corporation) is a homogeneous method using the single CellTiter-Glo® reagent to detect ATP wherein ATP in the assay drives the activity of a thermostable luciferase to create a luminescent signal which can then be measured and correlated with the number of viable cells. Briefly, for adherent cells, 1,000 to 5,000 cells/well were plated in 96-well plates (100 μl/well) and let to adhere for 24 hours before being treated with drug. For non-adherent cells, 1,000 to 10,000 cells/well were plated in 96-well plates (100 μl/well) and immediately treated with drug. Drug dilutions were prepared in DMSO at 1000 times the final concentration. These dilutions were then diluted 1/100 in growth media before being added to the cells (11 μl/well) to achieve the desired final concentration. After 48 h in a 37° C. tissue culture incubator, the plates were processed for the CellTiter-Glo®assay according to the manufacturer's instructions. Protocol for a 72 hour cell proliferation assay: The 72 hour assay was performed the same way as the 48 hour assay except for the following modifications: For adherent cells, 500 to 5,000 cells/well were plated in 96-well plates (90 μl/well cell growth media) and left to adhere for 24 hours before being treated with drug. For non-adherent cells, 1,000 to 10,000 cells/well were plated in 96-well plates (90 μl/well cell growth media) and immediately treated with drug. Data values presented represent the concentration of test compound required for a 50% reduction in growth. • LDH release. The Cytotoxicity Detection KitPLUS (LDH) assay (Roche Diagnostics, Manheim, Germany) measures the amount of LDH released in the media by dying cells; LDH catalyzes the conversion of lactate into pyruvate. The enzymatic reaction is coupled to a chemical reaction that uses a tetrazolium salt to form a formazan that is red and can be detected by its absorbance at 490 nm. This assay measures the amount of cell death after drug treatment. Cells were plated at 10,000 cells/well in 96-well plates (100 μl/well). Adherent cells were let to adhere for 24 hours before being treated with drug, whereas non-adherent cells were immediately treated with drug. Drug dilutions were prepared in DMSO at 1000 times the final concentration. These dilutions were then diluted 1/100 in growth media before being added to the cells (11 μl/well) to achieve the desired final concentration. After 48 h in a 37° C. tissue culture incubator, the plates were processed for the Cytotoxicity Detection KitPLUS (LDH) assay according to the manufacturer's instructions. The media only values were subtracted from all the data points before analysis. Data values presented correspond to the compound concentration wherein LDH output is at half maximal level. • Caspase-Glo® 3/7. The Caspase-Glo® 3/7 Assay (Promega Corporation) is a homogeneous luminescent assay that measures caspase-3/7 activities. The assay provides a proluminescent caspase-3/7 DEVD-aminoluciferin substrate and a thermostable luciferase in a reagent optimized for caspase-3/7 activity, luciferase activity and cell lysis. Adding the single Caspase-Glo® 3/7 Reagent results in cell lysis, followed by caspase cleavage of the substrate. This liberates free aminoluciferin, which is consumed by the luciferase, generating a luminescent signal. The signal is proportional to caspase-3/7 activity. Data values presented correspond to the compound concentration wherein caspase 3/7 activity is at half maximal level.

The test system of assay [2] is HT29. Conditions: Homo sapiens, HT-29.
Description: as §1

In assay [3] the test system is MV4; 11. Conditions: Homo sapiens.
Description: as §1

In assay [4] the test system is T47-D. The note with it: Homo sapiens, T47D.
Description: as §1

With `CC(C)(C)[C@H](c1nc(-c2cc(F)ccc2F)cn1Cc1ccccc1)N(CC[C@H](N)CF)C(=O)CO` [Compound IIa], the GI50 was greater than 5 nM in assay [1] (Colo-205, 24 h); 0.18 nM in assay [1] (Colo-205, 48 h); 0.19 nM in assay [1] (Colo-205, 72 h); greater than 5 nM in assay [2] (HT29, 24 h); greater than 5 nM in assay [2] (HT29, 48 h); 0.21 nM in assay [2] (HT29, 72 h). Also, the GI50 in assay [3] (MV4;11, 24 h) was 0.05 nM; in assay [3] (MV4;11, 48 h), 0.04 nM; in assay [3] (MV4;11, 72 h), 0.04 nM; in assay [4] (24 h), greater than 5 nM; in assay [4] (48 h), greater than 5 nM; in assay [4] (72 h), 0.45 nM.

Source of the values: patent publication US8252832B2, “Kinesin inhibitors as cancer therapeutics” (Novartis AG, priority 2007, dated 2012).
